Assay results: patent publication US5807868A, “Isoquinoline derivatives as therapeutic agents” (Knoll Aktiengesellschaft, priority 1993, dated 1998)
Counter-ions that a name gives are not always drawn.

How the values were obtained:
[1] = molecular target: D2 dopamine receptors (Rattus norvegicus, UniProt P61169); assay: Inhibition of tritiated (S)-sulpiride binding to D2 dopamine receptors, rat striatal samples; set-up: species or system rat (male Charles River CD rats); details: rat striatum, pH 7.7, 4° C., 40 minutes
D2 dopamine receptors, sequence (P61169 whole entry): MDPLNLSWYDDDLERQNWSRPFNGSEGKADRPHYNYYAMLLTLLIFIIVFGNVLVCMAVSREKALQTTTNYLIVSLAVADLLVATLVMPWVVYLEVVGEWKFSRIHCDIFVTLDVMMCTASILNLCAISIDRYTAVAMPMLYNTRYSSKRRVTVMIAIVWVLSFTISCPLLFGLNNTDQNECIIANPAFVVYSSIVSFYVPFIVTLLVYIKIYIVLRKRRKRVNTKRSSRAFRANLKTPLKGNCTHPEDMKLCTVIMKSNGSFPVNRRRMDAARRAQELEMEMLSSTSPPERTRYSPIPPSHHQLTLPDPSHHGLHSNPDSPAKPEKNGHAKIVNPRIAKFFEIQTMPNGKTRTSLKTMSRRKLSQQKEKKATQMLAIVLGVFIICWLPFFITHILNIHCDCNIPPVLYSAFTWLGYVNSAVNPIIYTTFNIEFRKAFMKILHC
Description: (§1) Striatal samples from the brains of male Charles River CD rats weighing between 140-250 g were homogenised in ice-cold 50 mM Tris-HCl buffer (pH 7.4 when measured at 25° C. for D1 binding assays and pH 7.7 when measured at 25° C. for D2 binding assays) and centrifuged for 10 minutes (at 21,000 g when used for D1 binding assay and 40,000 g when used for D2 binding assays). The pellet was resuspended in the same buffer, again centrifuged and the final pellet stored at -80° C. Before each test the pellet was resuspended in 50 mM Tris-HCl buffer containing 120 mM NaCl, 5 mM KCl, 2 mM CaCl2 and 1 mM MgCl2 at pH 7.4 for the D1 binding assays and at pH 7.7 with the addition of 6 mM ascorbic acid for the D2 binding assays. Aliquots of this suspension were then added to tubes containing the ligand and either the compound under test or buffer. For the D1 binding assays the ligand was tritiated SCH 23390 and the mixture was incubated at 37° C. for 30 minutes before the incubation was terminated by rapid filtration. For the D2 binding assays the ligand was tritiated (S)-sulpiride and the mixture was incubated at 4° C. for 40 minutes before the incubation was terminated by rapid filtration. Non-specific binding was determined experimentally by the addition of saturating concentrations of chloropromazine or spiroperidol for D1 and D2 receptors respectively.
(§2) The filters were washed with ice-cold Tris-HCl buffer and dried. The filters were punched out into vials containing scintillation fluid and were left for about 20 hours before being counted by scintillation spectrophotometry. Competition binding curves were produced over a range of concentrations of the compound under test and the inhibition coefficient Ki was derived from the data by use of the non-linear curve fitting computer programe EBDA (Biosoft).

[2] = molecular target: D1 dopamine receptors (Rattus norvegicus, UniProt P18901); assay: Inhibition of tritiated SCH 23390 binding to D1 dopamine receptors, rat striatal samples; set-up: species or system rat (male Charles River CD rats); details: for Ki: rat striatum, tritiated SCH 23390, pH 7.4, 37° C., 30 minutes; for Ki for D2 / Ki for D1: ratio between the D2 and D1 Ki values, to two significant figures
D1 dopamine receptors, sequence (P18901 whole entry): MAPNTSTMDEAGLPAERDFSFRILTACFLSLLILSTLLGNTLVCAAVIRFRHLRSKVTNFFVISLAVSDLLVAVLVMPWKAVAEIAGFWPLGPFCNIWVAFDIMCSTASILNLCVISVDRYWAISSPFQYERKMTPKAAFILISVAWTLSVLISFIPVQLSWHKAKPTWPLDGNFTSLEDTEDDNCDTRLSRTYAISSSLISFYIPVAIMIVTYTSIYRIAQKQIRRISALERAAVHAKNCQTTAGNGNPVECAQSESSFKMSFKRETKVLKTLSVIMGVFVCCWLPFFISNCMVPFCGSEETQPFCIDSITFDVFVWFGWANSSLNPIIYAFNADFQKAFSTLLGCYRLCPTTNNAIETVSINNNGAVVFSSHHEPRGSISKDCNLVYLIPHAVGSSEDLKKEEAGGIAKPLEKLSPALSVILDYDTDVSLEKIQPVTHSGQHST
Description: as §1, §2

SMILES	Ki [1] [nM]	Ki [2] [nM]	Ki for D2 / Ki for D1 [2]
Br.Cc1cc2c(cc1O)C(C1(c3ccsc3)CC1)N(C)CC2 (racemic) [Example 8, (±)-7-hydroxy-2,6-dimethyl-1-[1-(3-thienyl)cyclopropyl]-1,2,3,4-tetrahydroisoquinoline hydrobromide]	1300	5.9	220
Cc1cc2c(cc1O)C(C1(c3ccsc3)CC1)N(C)CC2.O=C(O)C(=O)O (single isomer, unassigned; (-)) [Example 6, (-)-7-hydroxy-2,6-dimethyl-1-[1-(3-thienyl)cyclopropyl]-1,2,3,4-tetrahydroisoquinoline oxalate]	4900	2.1	2300
Cc1cc2c(cc1O)C(C1(c3ccsc3)CC1)N(C)CC2 (single isomer, unassigned; (-)) [Example 7, (-)-7-hydroxy-2,6-dimethyl-1-[1-(3-thienyl)cyclopropyl]-1,2,3,4-tetrahydroisoquinoline hydrochloride 0.8 hydrate]	8500	4.2	2000
Br.CC(C)CC1(C2c3cc(O)ccc3CCN2C)CCC1 (stereo not drawn) [Example 1, 7-hydroxy-2-methyl-1-[1-(2-methylpropyl)cyclobutyl]-1,2,3,4-tetrahydroisoquinoline hydrobromide]	25000	370	68
Cc1cc2c(cc1O)C(C1(CC3CCCC3)CC1)N(C)CC2 (stereo not drawn) [Example 2, 1-[1-(cyclopentylmethyl)cyclopropyl]-7-hydroxy-2,6-dimethyl-1,2,3,4-tetrahydroisoquinoline]	2300	7.9	290
Cc1cc2c(cc1O)C(C1(C3C=CCCC3)CCC1)N(C)CC2.O=C(O)C(=O)O (stereo not drawn) [Example 3, 1-[1-(cyclohex-1-en-3-yl)cyclobutyl]-7-hydroxy-2,6-dimethyl-1,2,3,4-tetrahydroisoquinoline oxalate]	9500	77	120
Cc1cc2c(cc1O)C(C1(C3CCCc4ccccc43)CC1)N(C)CC2 (stereo not drawn) [Example 4, 7-hydroxy-2,6-dimethyl-1-[1-(1,2,3,4-tetrahydronaphth-1-yl)cyclopropyl]-1,2,3,4-tetrahydroisoquinoline 1.05 hydrochloride 0.7 hydrate]	190	6.7	28
Br.Cc1cc2c(cc1O)C(C1(c3cccs3)CC1)N(C)CC2 (stereo not drawn) [Example 5, 7-hydroxy-2,6-dimethyl-1-[1-(2-thienyl)cyclopropyl]-1,2,3,4-tetrahydroisoquinoline hydrobromide]	3000	32	94
Cc1cc2c(cc1O)C(C1(c3ccco3)CC1)N(C)CC2.O=C(O)/C=C\C(=O)O (stereo not drawn) [Example 9, 1-[1-(2-furyl)cyclopropyl]-7-hydroxy-2,6-dimethyl-1,2,3,4-tetrahydroisoquinoline maleate]	8900	40	220
CN1CCc2ccc(O)cc2C1C1(c2ccccn2)CCC1.O=C(O)C(=O)O (stereo not drawn) [Example 10, 7-hydroxy-2-methyl-1-[1-(2-pyridyl)cyclobutyl]-1,2,3,4-tetrahydroisoquinoline oxalate]	7000	160	44
Cc1cc2c(cc1O)C(C1(c3ccccn3)CC1)N(C)CC2 (stereo not drawn) [Example 11, 7-hydroxy-2,6-dimethyl-1-[1-(2-pyridyl)cyclopropyl]-1,2,3,4-tetrahydroisoquinoline]	1100	140	79
